This note sets out measurements from the SangsterLogP compilation.

`O=C1C(O)N=C(c2ccccc2F)c2cc(Cl)ccc2N1CCO` (stereo not drawn): the logP (as a rule, the decadic logarithm of the partition coefficient of the neutral form, usually between octanol and water) came out at 1.52. For the molecule `O=C1C(O)N=C(c2ccccc2Cl)c2cc(Cl)ccc2N1CCO` (stereo not drawn), the logP was determined as 2.16. For the molecule `O=C1Nc2ccc(Cl)cc2C(c2ccccc2F)=NC1O` (stereo not drawn), the logP came to 1.81.

The molecule `O=C1C(O)N=C(c2ccccc2)c2cc(Cl)ccc2N1CCO` (stereo not drawn) yielded a log partition coefficient (logP) of 1.53. Molecule `O=C1C[N+]([O-])=C(c2ccccc2)c2cc(Cl)ccc2N1CCO` yielded a log partition coefficient (logP) of 0.82. With `CC(=O)OCCCN1C(=O)C(OC(C)=O)N=C(c2ccccc2)c2cc(Cl)ccc21` (stereo not drawn) the figure was 3.08. Take `CCN(CC)CCN1C(=O)C(O)N=C(c2ccccc2)c2cc(Cl)ccc21` (stereo not drawn): the lipophilicity (logP) was found to be 1.7. With `CCCC(CCC)C(=O)OC1N=C(c2ccccc2)c2cc(Cl)ccc2NC1=O` (stereo not drawn) the figure was 4.94; with `O=C1C(O)N=C(c2ccccc2)c2cc(Cl)ccc2N1CCCO` (stereo not drawn), 1.68; with `O=C1C(O)N=C(c2ccccc2)c2cc([N+](=O)[O-])ccc2N1CCO` (stereo not drawn), 0.55. In turn, `CCOC1N=C(c2ccccc2)c2cc(Cl)ccc2N(CCCl)C1=O` (stereo not drawn) returned a logP of 3.53. As for `O=C1CN=C(c2ccccc2)c2cc(Cl)ccc2N1CC(F)(F)F`, the logP is 3.97. In the case of `CN1C(=O)C(O)N=C(c2ccccc2Cl)c2cc(Cl)ccc21` (stereo not drawn), the logP was 2.5. Turning to `COc1cc(C(=O)OC2N=C(c3ccccc3)c3cc(Cl)ccc3NC2=O)cc(OC)c1OC` (stereo not drawn), the log partition coefficient (logP) is 3.75. Take `CCOC1N=C(c2ccccc2)c2cc(Cl)ccc2N(CCO)C1=O` (stereo not drawn): the lipophilicity (logP) was determined as 2.44. In turn, `O=C(O)CCC(=O)OC1N=C(c2ccccc2)c2cc(Cl)ccc2NC1=O` (stereo not drawn) showed a lipophilicity (logP) of 1.5. As to `CC(=O)OCCN1C(=O)C(OC(C)=O)N=C(c2ccccc2)c2cc(Cl)ccc21` (stereo not drawn), the logP stood at 2.74. As for `CN1C(=O)C(O)N=C(c2ccccc2F)c2cc(Cl)ccc21` (stereo not drawn), the logP was 2.09. The molecule `CCN(CC)CCN1C(=O)C(O)N=C(c2ccccc2F)c2cc(Cl)ccc21` (stereo not drawn) came in with a logP of 1.89. Take `CC(=O)OC1N=C(c2ccccc2)c2cc(Cl)ccc2N(CCO)C1=O` (stereo not drawn): the lipophilicity (logP) worked out at 2.45. As to `CNC(=O)N1C(=O)CN=C(c2ccccc2)c2cc([N+](=O)[O-])ccc21`, the logP came to 1.76.

The molecule `O=C(O)CCC(=O)OCCN1C(=O)C[N+]([O-])=C(c2ccccc2)c2cc(Cl)ccc21` returned a logP of 0.36.

`CCN(CC)CCN1C(=O)C(O)N=C(c2ccccc2Cl)c2cc(Cl)ccc21` (stereo not drawn) yielded a logP of 1.76.
